Reference: patent publication US5015578A, “BMY-41950 antitumor antibiotic” (Bristol-Myers Squibb Company, priority 1990, dated 1991)
Converted amounts (≈) assume the structure as drawn.

How the values were obtained:
[1] = test system: HCT-116 (human colon cancer cell clone); assay: In vitro cytotoxicity, HCT-116 cells (crystal violet); format: cell-based; settings: 72 hours, 50% cell death or growth inhibition; for IC50: Homo sapiens, HCT-116, read-out: In Vitro Antitumor Activity IC50, HCT-116
Experimental: (§1) BMY-41950 was tested for in vitro cytotoxic activity against a murine and a human tumor cell line. In vivo it was tested for activity against a murine leukemia tumor model. In vitro, mitomycin C and cisplatin were used as the reference compounds, while etoposide (VP-16) was used as the in vivo reference.
(§2) B16-F10 (murine melanoma) and HCT-116 (human colon cancer cell clone) cells were cultured in Complete McCoys Media. The media consists of 420 ml McCoys 5A media plus 500 mg sodium bicarbonate in 6 ml water, 6.56 mg L-serine. 1.5 mg L-asparagine and 82.4 mg sodium pyruvate in 2 ml water. 6.25 ml essential amino acids (50X, Gibco), 3.0 ml non-essential amino acids (100X, Gibco), 3 ml L-glutamine (200MM), 3 ml MEM vitamins (Gibco), 6.25 ml penicillin/streptomycin (Gibco) and 50 ml of heat-inactivated defined fetal calf serum.
(§3) The two cell lines are harvested during logarithmic phase cell growth and 3600 cells in 150 microliter media were placed in each well of a 96 well microtiter plate. After 24 hours incubation at 37 degrees Celsius in a 95% air/5% carbon dioxide humidified incubator to allow the cells to attach to the plate, fifty microliters of sample/reference drug is added to 11 of 12 of the top row of wells while 50 microliters of media is added to the 12th. The drugs/media are serially diluted (4 fold dilutions) down the 8 wells of the plate. The cells in the presence of drug/media are then incubated for 72 hours. After fixing with 10% formalin, cells killed by the drug were washed off the plate while those surviving cells are stained with 0.0075% crystal violet. After drying, the stain is solubilized with 10% ethanol and 1% acetic acid, the developed plate quantitated on a Dynatech MR 600 plate reader and the IC50 values (drug concentration at which 50% cell death or growth inhibition occurs) calculated.

[2] = test system: B16-F10 (murine melanoma); assay: In vitro cytotoxicity, B16-F10 cells (crystal violet); format: cell-based; settings: 72 hours, 50% cell death or growth inhibition; for IC50: Mus musculus, B16-F10, read-out: In Vitro Antitumor Activity IC50, B16-F10
Experimental: as §1, §2, §3

[3] = Solubility; format: physicochemical
[4] = test system: Enterococcus faecalis A20688; assay: MIC vs. Enterococcus faecalis A20688, in vitro antimicrobial screening; format: cell-based; settings: read-out: MIC (Minimum Inhibitory Concentration)
[5] = test system: lymphocytic leukemia P388 cells; assay: In vivo activity in P388 murine leukemia model; design: species or system murine (female CDF1 mice); settings: days 1-5
Experimental: as §1
In vivo activity of BMY-41950 was determined in a murine leukemia tumor system. Female CDF1 mice were intraperitoneally inoculated with 0.5 ml of diluted ascitic fluid containing 10^6 lymphocytic leukemia P388 cells. Ten mice were untreated and the median survival time of this group was 10 days. Three groups of 4 mice each were treated with BMY-41950 on days 1, 2, 3, 4 and 5 post tumor implant. The drug was administered ip after being initially dissolved in DMSO, Tween 80 and buffered saline. […] Thus the % T/C (survival time of drug treated/survival time of untreated controls×100) was 130%. The criteria for antitumor activity in this murine tumor test is a % T/C of 125 or greater. Thus. BMY-41950 fulfilled the criteria for antitumor activity in the P388 murine leukemia antitumor model.

[6] = test system: Staphylococcus aureus A9537; assay: MIC vs. Staphylococcus aureus A9537, in vitro antimicrobial screening; format: cell-based; settings: read-out: MIC (Minimum Inhibitory Concentration)

Structure (SMILES) | In Vitro Antitumor Activity IC50, HCT-116 [1] | In Vitro Antitumor Activity IC50, B16-F10 [2] | IC50 [1] | IC50 [2] | Solubility in CHCl3-CH3OH ([3]; CHCl3-CH3OH (2:1 v/v)) | Solubility in dimethylsulfoxide (DMSO) ([3]; dimethylsulfoxide (DMSO)) | Solubility in tetrahydrofuran (THF) ([3]; tetrahydrofuran (THF)) | MIC [4] | % T/C (survival time of drug treated/survival time of untreated controls×100) ([5]; 2 mg/kg/day ip, criterion for activity 125 or greater) | median survival time ([5]; 2 mg/kg/day ip, untreated controls 10 days) | drug-induced toxicity / deaths ([5]; 18 and 6 mg/kg/day ip) | MIC [6]
N.N.[Cl][Pt][Cl] [Cisplatin] | 15.6 µg/mL | 3.9 µg/mL |  |  |  |  |  |  |  |  |  | 
CO[C@@]12[C@H](COC(N)=O)C3=C(C(=O)C(C)=C(N)C3=O)N1C[C@@H]1N[C@@H]12 [Mitomycin C] |  |  | 0.98 µg/mL (≈ 2.93 µM) | 0.98 µg/mL (≈ 2.93 µM) |  |  |  |  |  |  |  | 
CNC1CC2OC(C)(C1OC)n1c3ccccc3c3c4c(c5c6ccccc6n2c5c31)C(=O)NC4=O (centres unmarked) [BMY-41950, 7-oxostaurosporine] |  |  | 0.24 µg/mL (≈ 0.499 µM) | 0.98 µg/mL (≈ 2.04 µM) | soluble | soluble | soluble | 12.5 µg/mL (≈ 26 µM) | 130% | 13 days | suffered drug-induced toxicity and all mice died prior to day 7 | 6.25 µg/mL (≈ 13 µM)
